This experiment concerns the target T1, BTK (Homo sapiens, UniProt Q06187).
T1 construct: purchased Upstate 14-552
In words: In vitro BTK kinase assay: BTK-POLYGAT-LS assay. Type of experiment: biochemical. Conditions: 10 uM ATP, read-out: IC50 (10 uMATP).

Structures can show the parent of a compound that is named as a salt.

The source of these data is US10280169B2, “Biaryl bruton's tyrosine kinase inhibitors” (BIOGEN MA INC., priority 2013, dated 2019).

T1 sequence (Q06187 whole entry): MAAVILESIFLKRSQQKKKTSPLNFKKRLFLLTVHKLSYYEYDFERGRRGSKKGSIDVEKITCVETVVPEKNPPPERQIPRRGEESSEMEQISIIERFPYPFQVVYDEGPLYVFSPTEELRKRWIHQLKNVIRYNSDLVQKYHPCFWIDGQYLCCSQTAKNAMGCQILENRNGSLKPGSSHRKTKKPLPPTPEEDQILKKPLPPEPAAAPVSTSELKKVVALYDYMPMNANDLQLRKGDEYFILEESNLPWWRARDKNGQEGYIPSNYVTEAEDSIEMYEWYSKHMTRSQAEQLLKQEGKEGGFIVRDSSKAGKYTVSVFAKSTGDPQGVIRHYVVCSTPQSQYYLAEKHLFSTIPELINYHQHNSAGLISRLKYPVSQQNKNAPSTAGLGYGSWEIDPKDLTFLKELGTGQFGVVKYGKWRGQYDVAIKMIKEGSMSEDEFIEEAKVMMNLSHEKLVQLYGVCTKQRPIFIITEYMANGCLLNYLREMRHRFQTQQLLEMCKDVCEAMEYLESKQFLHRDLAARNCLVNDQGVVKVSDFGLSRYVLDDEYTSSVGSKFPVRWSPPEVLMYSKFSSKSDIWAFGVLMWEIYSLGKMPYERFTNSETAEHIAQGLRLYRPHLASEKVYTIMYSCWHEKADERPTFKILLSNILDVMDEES

Consider `O=C(NCc1ccc(-c2ncnc3[nH]ccc23)cc1)c1nc2c(s1)CCCC2` [Example I-62, N-(4-(7H-pyrrolo[2,3-d]pyrimidin-4-yl)benzyl)-4,5,6,7-tetrahydrobenzo[d]thiazole-2-carboxamide], for which the IC50 is 10 to 99 nM.

On to `O=C(NCc1ccc(-c2ncnc3[nH]ccc23)cc1)c1cc(C(F)(F)F)c(Cl)cn1` [Example I-63, N-(4-(7H-pyrrolo[2,3-d]pyrimidin-4-yl)benzyl)-5-chloro-4-(trifluoromethyl)picolinamide], for which the IC50 is 1000 to 10000 nM.

`O=C(NCc1ccc(-c2ncnc3[nH]ccc23)cc1)c1cn2c(n1)CCCC2` [Example I-64, N-(4-(7H-pyrrolo[2,3-d]pyrimidin-4-yl)benzyl)-5,6,7,8-tetrahydroimidazo[1,2-a]pyridine-2-carboxamide]: the IC50 is above 10000 nM.

For the compound `O=C(NCc1ccc(-c2ncnc3[nH]ccc23)cc1)c1cc2c(s1)CCCC2` [Example I-65, N-(4-(7H-pyrrolo[2,3-d]pyrimidin-4-yl)benzyl)-4,5,6,7-tetrahydrobenzo[b]thiophene-2-carboxamide], the IC50 is 10 to 99 nM.

For the compound `O=C(NCc1ccc(-c2ncnc3[nH]ccc23)cc1)c1ccc(C(F)(F)F)cc1` [Example I-66, N-(4-(7H-pyrrolo[2,3-d]pyrimidin-4-yl)benzyl)-4-(trifluoromethyl)benzamide], the IC50 is 100 to 999 nM.

Turning to `CC(C)(C)c1ccc(C(=O)NCc2ccc(-c3ncnc4[nH]ccc34)cc2)cn1` [Example I-67, N-(4-(7H-pyrrolo[2,3-d]pyrimidin-4-yl)benzyl)-6-(tert-butyl)nicotinamide], the IC50 fell in the range of 100 to 999 nM.

Regarding `CC(C)(C)c1ccc(C(=O)NCc2ccc(-c3ncnc4[nH]ccc34)cc2)nc1` [Example I-68, N-(4-(7H-pyrrolo[2,3-d]pyrimidin-4-yl)benzyl)-5-(tert-butyl)picolinamide], the IC50 fell in the range of 100 to 999 nM.

As for `O=C(NCc1ccc(-c2ncnc3[nH]ccc23)cc1)N1Cc2ccccc2C1` [Example I-69, N-(4-(7H-pyrrolo[2,3-d]pyrimidin-4-yl)benzyl)isoindoline-2-carboxamide], the IC50 is 10 to 99 nM.

With `CC(C)(C)c1ccc(C(=O)NCc2ccc(-c3ncnc4[nH]ccc34)cn2)nc1` [Example I-70], the IC50 is 100 to 999 nM.

For the compound `O=C(NCc1ccc(-c2ncnc3[nH]ccc23)cn1)c1cc2c(s1)CCCC2` [Example I-71, N-((5-(7H-pyrrolo[2,3-d]pyrimidin-4-yl)pyridin-2-yl)methyl)-4,5,6,7-tetrahydrobenzo[b]thiophene-2-carboxamide], the IC50 was in the range of 10 to 99 nM.

Consider `CC(C)(C)c1ccc(C(=O)NCc2ccc(-c3ccnc4[nH]ccc34)nc2)nc1` [Example I-72, N-((6-(1H-pyrrolo[2,3-b]pyridin-4-yl)pyridin-3-yl)methyl)-5-(tert-butyl)picolinamide], for which the IC50 fell in the range of 100 to 999 nM.

For `O=C(NCc1ccc(-c2ccnc3[nH]ccc23)nc1)c1cc2c(s1)CCCC2` [Example I-73, N-((6-(1H-pyrrolo[2,3-b]pyridin-4-yl)pyridin-3-yl)methyl)-4,5,6,7-tetrahydrobenzo[b]thiophene-2-carboxamide], the IC50 was 10 to 99 nM.

Consider `C[C@@H](NC(=O)c1nc2c(s1)CCCC2)c1ccc(-c2ncnc3[nH]ccc23)cc1` [Example I-74, (R)—N-(1-(4-(7H-pyrrolo[2,3-d]pyrimidin-4-yl)phenyl)ethyl)-4,5,6,7-tetrahydrobenzo[d]thiazole-2-carboxamide], for which the IC50 fell in the range of 100 to 999 nM.

For `C[C@H](NC(=O)c1nc2c(s1)CCCC2)c1ccc(-c2ncnc3[nH]ccc23)cc1` [Example I-75, (S)—N-(1-(4-(7H-pyrrolo[2,3-d]pyrimidin-4-yl)phenyl)ethyl)-4,5,6,7-tetrahydrobenzo[d]thiazole-2-carboxamide], the IC50 was in the range of 1000 to 10000 nM.

For the compound `Cc1cc(-c2ncnc3[nH]c(-c4cnn5c4CNCC5)cc23)ccc1CNC(=O)c1cnc(C(C)(C)C)s1` [Example I-76, 2-(tert-butyl)-N-(2-methyl-4-(6-(4,5,6,7-tetrahydropyrazolo[1,5-a]pyrazin-3-yl)-7H-pyrrolo[2,3-d]pyrimidin-4-yl)benzyl)thiazole-5-carboxamide hydrochloride], the IC50 is below 10 nM.

Consider `Cc1cc(-c2ncnc3[nH]ccc23)ccc1C(C)NC(=O)c1nc2c(s1)CCCC2` (stereo not shown) [Example I-77, N-(1-(2-methyl-4-(7H-pyrrolo[2,3-d]pyrimidin-4-yl)phenyl)ethyl)-4,5,6,7-tetrahydrobenzo[d]thiazole-2-carboxamide], for which the IC50 is below 10 nM.

Take `CC(NC(=O)c1nc2c(s1)CCCC2)c1ccc(-c2ncnc3[nH]ccc23)cc1C(F)(F)F` (stereo not shown) [Example I-79, N-(1-(4-(7H-pyrrolo[2,3-d]pyrimidin-4-yl)-2-(trifluoromethyl)phenyl)ethyl)-4,5,6,7-tetrahydrobenzo[d]thiazole-2-carboxamide]: the IC50 was 10 to 99 nM.

Take `CC(NC(=O)c1cc2c(s1)CCCC2)c1ccc(-c2ncnc3[nH]ccc23)cc1C(F)(F)F` (stereo not shown) [Example I-80, N-(1-(4-(7H-pyrrolo[2,3-d]pyrimidin-4-yl)-2-(trifluoromethyl)phenyl)ethyl)-4,5,6,7-tetrahydrobenzo[b]thiophene-2-carboxamide]: the IC50 is 10 to 99 nM.

Consider `O=C(N[C@@H]1CCCc2cc(-c3ncnc4[nH]ccc34)ccc21)c1cc2c(s1)CCCC2` [Example I-81, (R)—N-(6-(7H-Pyrrolo[2,3-d]pyrimidin-4-yl)-1,2,3,4-tetrahydronaphthalen-1-yl)-4,5,6,7-tetrahydrobenzo[b]thiophene-2-carboxamide], for which the IC50 fell in the range of 100 to 999 nM.

As for `CC(C)(C)c1ccc(C(=O)NC2COCc3cc(-c4ncnc5[nH]ccc45)ccc32)nc1` (stereo not shown) [Example I-82, N-(7-(7H-pyrrolo[2,3-d]pyrimidin-4-yl)isochroman-4-yl)-5-(tert-butyl)picolinamide], the IC50 fell in the range of 100 to 999 nM.

Consider `CC(C)(C)c1ccc(C(=O)NC2COCc3cc(-c4ncnc5[nH]ccc45)ccc32)cc1` (stereo not shown) [Example I-83, N-(7-(7H-pyrrolo[2,3-d]pyrimidin-4-yl)isochroman-4-yl)-4-(tert-butyl)benzamide], for which the IC50 was in the range of 1000 to 10000 nM.

`CC(C)(C)c1ccc(C(=O)NCc2ccc(-c3ncnc4[nH]ncc34)cc2)cc1` [Example I-84, N-(4-(1H-pyrazolo[3,4-d]pyrimidin-4-yl)benzyl)-4-(tert-butyl)benzamide]: the IC50 is 100 to 999 nM.

As to `O=C(N[C@@H]1CCCc2cc(-c3ncnc4[nH]ncc34)ccc21)c1cc2c(s1)CCCC2` [Example I-86, (R)—N-(6-(1H-Pyrazolo[3,4-d]pyrimidin-4-yl)-1,2,3,4-tetrahydronaphthalen-1-yl)-4,5,6,7-tetrahydrobenzo[b]thiophene-2-carboxamide], the IC50 is 10 to 99 nM.

As to `CC(C)(C)c1ccc(C(=O)NC2CCCc3cc(-c4ncnc5[nH]ncc45)ccc32)cc1` (stereo not shown) [Example I-88, N-(6-(1H-pyrazolo[3,4-d]pyrimidin-4-yl)-1,2,3,4-tetrahydronaphthalen-1-yl)-4-(tert-butyl)benzamide], the IC50 was 10 to 99 nM.

As for `O=C(NC1CCCc2cc(-c3ncnc4[nH]ncc34)ccc21)c1ccc(Cl)c(F)c1` (stereo not shown) [Example I-90, N-(6-(1H-pyrazolo[3,4-d]pyrimidin-4-yl)-1,2,3,4-tetrahydronaphthalen-1-yl)-4-chloro-3-fluorobenzamide], the IC50 was 100 to 999 nM.

A word on the IC50: it is the concentration at which inhibition is half-maximal.
